Test results: patent US20210380548A1, “Fused [1,2,4]Thiadiazine Derivatives Which Act as KAT Inhibitors of the MYST Family” (CTxT Pty Limited, priority 2017, published 2021)

Legend:
[1] = target: T1, HBO-KAT7 (Homo sapiens, UniProt O95251); assay: Revised Acetyltransferase Biochemical Assay, KAT7; details: Table 9 (HBO-KAT7), 1 μM Acetyl coenzyme A
T1 construct: encoding amino acid residues 325 to 611 (Uniprot 095251-1) of human KAT7; made in house; host or cells: E. coli BL21 DE3 RIL

[2] = system: histone H3K23 acetylation (KATE mediated) in U2OS cells; assay: Histone H3 Lysine 23 Acetylation Biomarker Assay (U2OS); format: cell-based; details: 96 well, 24 hours incubation
Method: Compounds may be tested for their ability to inhibit acetylation of the histone H3K23 marker, which is KATE mediated, in the following assay:
The cell line U2OS was seeded at a density of 9,000 cells per well in 96 well optical quality tissue culture plates in RPMI medium and 10% foetal bovine serum, and allowed to adhere for 24 hours under standard culture conditions (37 degree Celsius, 5% CO2). At the end of this period the medium was aspirated. Compound dilutions prepared in DMSO were added to medium, with negative control wells reserved for treatment with DMSO only and 100% inhibition positive controls receiving a potent inhibitor compound (e.g. cas 2055397-28-7, benzoic acid, 3-fluoro-5-(2-pyridinyl)-, 2-[(2-fluorophenyl)sulfonyl]hydrazide) (Baell, J., Nguyen, H. N., Leaver, D. J., Cleary, B. L., Lagiakos, H. R., Sheikh, B. N., Thomas. T. J., Aryl sulfonohydrazides, WO2016198507A1, 2016) at 10 μM concentration and 200 μL transferred to the cells. After incubation for 24 hours, the cells were fixed with 3.7% formaldehyde in PBS for 20 minutes at room temperature, washed (5×5 minutes) with phosphate buffer saline containing 0.1% Tween 20 and blocked with Odyssey blocking buffer (LI-COR, Lincoln, Nebr.) containing 0.1% TritonX100. Anti-H3K23ac specific antibody (Abcam ab177275) in Odyssey blocking buffer containing 0.1% Tween 20 was added and incubated for 16 hours at 4 degree Celsius. After washing (as above), a secondary antibody labelled with Alexa647 dye (LifeTechnologies) and Hoechst 33342 (1 μg/mL, SigmaAldrich) were added for 1 hour incubation. Plates were washed as previously and read on a PerkinElmer Phenix high content imaging platform. Using a Columbus image analysis pipeline, individual nuclei were located by Hoechst 33342 stain and the acetylation level was calculated from the Alexa647-related intensity in the same area. The resulting mean intensity per cell was directly converted to percent inhibition relative to controls on the same plate and the data fitted against a four-parameter logistic model to determine the 50% inhibitory concentration (IC50).

[3] = target: T2, TIP60-KAT5 (Homo sapiens, UniProt Q92993); assay: Acetyltransferase biochemical assay (AlphaScreen), KAT5; details: Table 1 (TIP60-KAT5); 0.4 μM Acetyl coenzyme A, histone H4, 10 nM enzyme
T2 construct: encoding amino acid residues 2 to 461 (Uniprot Q92993-2) of human KAT5 isoform; made in house; host or cells: E. coli BL21 DE3

[4] = target: T3, MOF-KAT8 (Homo sapiens, UniProt Q9H7Z6); assay: Revised Acetyltransferase Biochemical Assay, KAT8
T3 sequence (Q9H7Z6 177-447): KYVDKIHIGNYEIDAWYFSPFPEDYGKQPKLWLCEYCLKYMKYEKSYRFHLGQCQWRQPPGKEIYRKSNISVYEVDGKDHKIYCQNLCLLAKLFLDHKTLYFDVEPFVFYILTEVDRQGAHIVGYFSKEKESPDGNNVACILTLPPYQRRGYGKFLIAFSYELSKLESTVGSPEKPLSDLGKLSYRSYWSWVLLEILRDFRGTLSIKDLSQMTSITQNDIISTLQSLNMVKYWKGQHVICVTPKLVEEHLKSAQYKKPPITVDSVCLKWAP

[5] = target: T4, MOZ-KAT6A (Homo sapiens, UniProt Q92794, A567V); assay: Revised Acetyltransferase Biochemical Assay, KAT6A; details: Table 8 (MOZ-KAT6A), 1 μM Acetyl coenzyme A
T4 construct: encoding amino acid residues 507 to 778 (Uniprot Q92794-1) of human KAT6A; made in house; host or cells: E. coli BL21 DE3

[6] = target: T5, QKF-KAT6B (Homo sapiens, UniProt Q8WYB5); assay: Revised Acetyltransferase Biochemical Assay, KAT6B; details: 8 nM KAT6B, 1 μM AcCoA, 100 nM histone H3.1, 90 min
T5 construct: purchased SignalChem K315-381BG
Excerpt: KAT6B was obtained from SignalChem, catalog ID: K315-381BG

[7] = target: T4, MOZ-KAT6A; assay: Acetyltransferase biochemical assay (AlphaScreen), KAT6A; details: Table 2 (MOZ-KAT6A); 10 μM Acetyl coenzyme A, histone H3.1, 5 nM enzyme
[8] = target: T2, TIP60-KAT5; assay: Revised Acetyltransferase Biochemical Assay, KAT5; details: 10 nM KAT5, 1 μM AcCoA, 100 nM histone H4, 90 min
[9] = target: T1, HBO-KAT7; assay: Acetyltransferase biochemical assay (AlphaScreen), KAT7; details: Table 3 (HBO-KAT7); 0.4 μM Acetyl coenzyme A, histone H3.1, 40 nM enzyme
[10] = target: T3, MOF-KAT8; assay: Acetyltransferase biochemical assay (AlphaScreen), KAT8; details: Table 4 (MOF-KAT8); 0.4 μM Acetyl coenzyme A, histone H4, 20 nM enzyme
[11] = system: histone H2A.Z Lysine 7 acetylation (TIP60 mediated) in U2OS cells; assay: H2A.Z Lysine 7 Acetylation Biomarker Assay (384-well, U2OS); format: cell-based; details: Homo sapiens, serum free medium, 24 hours incubation
Outline: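 U2OS cells (3,000/well) were treated with compound for 24 h after a serum-free wash, then fixed. They were stained with anti-H2A.ZK7ac, an AlexaFluor 488 secondary and Hoechst. High-content imaging gave mean nuclear intensity per cell, converted to percent inhibition against on-plate controls, and IC50 came from a four-parameter logistic fit.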

[12] = system: histone H3 Lysine 14 acetylation (HBO1 mediated) in U2OS cells; assay: Histone H3 Lysine 14 Acetylation Biomarker Assay (384-well, U2OS); format: cell-based; details: Homo sapiens, serum free medium, 24 hours incubation
Method: Compounds may be tested for their ability to inhibit acetylation of the histone H3 Lysine 14 (which is HBO1 mediated) marker in the following assay:
The cell line U2OS was seeded at a density of 3,000 cells per well in 384-well optical quality tissue culture plates in RPMI medium supplemented with 10% foetal bovine serum and 10 mM Hepes. The cells were allowed to adhere for 24 hours under standard culture conditions (37 degree Celsius, 5% CO2). At the end of this period the cells were washed with serum free medium. Compound dilutions prepared in DMSO were added to the serum free medium, with negative control wells reserved for treatment with DMSO only and 100% inhibition positive controls receiving a potent inhibitor compound (e.g. (Z)-4-fluoro-N-((3-hydroxyphenyl)sulfonyl)-5-methyl-[1,1′-biphenyl]-3-carbohydrazonic acid) at 10 μM concentration. After incubation for 24 hours, the cells were fixed with 4% formaldehyde in PBS for 15 minutes at room temperature, washed with phosphate buffer saline and blocked with blocking buffer containing 0.2% TritonX100 and 2% BSA. Anti-H3K14ac specific antibody (Cell Signalling Technologies) in blocking buffer was added and incubated overnight at 4 degree Celsius. After washing, a secondary antibody labelled with AlexaFluor 488 dye (ThermoFisher) and Hoechst 33342 (1 μg/mL, Life Technologies) were added for 2 hours incubation at room temperature. Plates were washed and read on a
PerkinElmer Opera HCS high content imaging platform. Using a Columbus image analysis pipeline, individual nuclei were located by Hoechst 33342 stain and the acetylation level was calculated from the AlexaFluor 488-related intensity in the same area. The resulting mean intensity per cell was converted to percent inhibition relative to controls on the same plate and the data fitted against a four-parameter logistic model to determine the 50% inhibitory concentration (IC50).

T5 sequence (Q8WYB5 whole entry): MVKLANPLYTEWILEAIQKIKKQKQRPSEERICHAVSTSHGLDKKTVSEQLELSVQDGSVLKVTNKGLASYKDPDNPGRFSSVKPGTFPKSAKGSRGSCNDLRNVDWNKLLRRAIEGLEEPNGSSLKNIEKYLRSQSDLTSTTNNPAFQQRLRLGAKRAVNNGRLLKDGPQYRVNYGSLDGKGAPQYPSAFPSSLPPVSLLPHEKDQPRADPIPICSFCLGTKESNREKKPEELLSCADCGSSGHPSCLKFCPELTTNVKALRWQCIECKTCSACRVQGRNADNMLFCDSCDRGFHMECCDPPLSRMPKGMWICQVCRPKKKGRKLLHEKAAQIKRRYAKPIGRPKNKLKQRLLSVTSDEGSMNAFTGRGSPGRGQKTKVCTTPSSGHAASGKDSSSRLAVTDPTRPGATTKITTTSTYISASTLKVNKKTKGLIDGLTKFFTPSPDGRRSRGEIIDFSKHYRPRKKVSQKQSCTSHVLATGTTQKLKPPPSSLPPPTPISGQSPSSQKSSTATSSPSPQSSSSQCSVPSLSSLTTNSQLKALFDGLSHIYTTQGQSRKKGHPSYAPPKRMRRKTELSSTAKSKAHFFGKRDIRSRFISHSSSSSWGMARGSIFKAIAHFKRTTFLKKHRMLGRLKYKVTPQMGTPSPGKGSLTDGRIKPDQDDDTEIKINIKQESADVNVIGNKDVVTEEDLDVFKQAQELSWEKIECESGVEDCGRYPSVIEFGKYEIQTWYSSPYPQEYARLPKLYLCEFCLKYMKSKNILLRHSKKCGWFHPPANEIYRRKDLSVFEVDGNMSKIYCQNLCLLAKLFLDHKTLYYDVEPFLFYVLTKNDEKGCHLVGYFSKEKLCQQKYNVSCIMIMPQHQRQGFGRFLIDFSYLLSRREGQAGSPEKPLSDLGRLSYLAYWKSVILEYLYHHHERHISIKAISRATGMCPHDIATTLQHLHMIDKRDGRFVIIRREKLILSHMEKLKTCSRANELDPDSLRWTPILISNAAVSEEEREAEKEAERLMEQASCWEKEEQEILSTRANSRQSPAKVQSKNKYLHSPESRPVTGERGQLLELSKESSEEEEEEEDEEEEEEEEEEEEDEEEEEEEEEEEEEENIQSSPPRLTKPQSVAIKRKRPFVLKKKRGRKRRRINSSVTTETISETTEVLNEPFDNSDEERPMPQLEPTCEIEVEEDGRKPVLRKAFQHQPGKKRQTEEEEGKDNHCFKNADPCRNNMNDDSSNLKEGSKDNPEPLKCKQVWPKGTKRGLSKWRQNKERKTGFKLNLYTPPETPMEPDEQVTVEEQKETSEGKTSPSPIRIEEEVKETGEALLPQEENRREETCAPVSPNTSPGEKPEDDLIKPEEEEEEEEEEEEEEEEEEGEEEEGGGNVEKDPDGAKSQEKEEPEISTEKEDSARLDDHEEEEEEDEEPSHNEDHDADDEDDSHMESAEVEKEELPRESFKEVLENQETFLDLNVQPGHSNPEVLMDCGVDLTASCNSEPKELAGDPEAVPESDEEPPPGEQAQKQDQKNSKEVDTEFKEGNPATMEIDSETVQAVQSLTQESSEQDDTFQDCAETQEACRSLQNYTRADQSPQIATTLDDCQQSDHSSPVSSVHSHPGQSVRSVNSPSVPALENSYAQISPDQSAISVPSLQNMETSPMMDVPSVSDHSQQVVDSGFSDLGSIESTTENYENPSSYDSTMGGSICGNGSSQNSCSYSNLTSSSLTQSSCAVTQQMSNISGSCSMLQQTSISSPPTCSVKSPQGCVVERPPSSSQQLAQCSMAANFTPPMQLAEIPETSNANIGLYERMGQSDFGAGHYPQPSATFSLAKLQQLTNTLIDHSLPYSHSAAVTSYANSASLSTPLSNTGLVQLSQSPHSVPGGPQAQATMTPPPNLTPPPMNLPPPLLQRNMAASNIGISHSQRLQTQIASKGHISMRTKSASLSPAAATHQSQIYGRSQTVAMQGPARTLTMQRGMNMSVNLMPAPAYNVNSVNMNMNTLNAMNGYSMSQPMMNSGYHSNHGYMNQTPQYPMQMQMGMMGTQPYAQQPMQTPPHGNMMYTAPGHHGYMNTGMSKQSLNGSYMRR
T2 sequence (Q92993 2-461 isoform Q92993-2): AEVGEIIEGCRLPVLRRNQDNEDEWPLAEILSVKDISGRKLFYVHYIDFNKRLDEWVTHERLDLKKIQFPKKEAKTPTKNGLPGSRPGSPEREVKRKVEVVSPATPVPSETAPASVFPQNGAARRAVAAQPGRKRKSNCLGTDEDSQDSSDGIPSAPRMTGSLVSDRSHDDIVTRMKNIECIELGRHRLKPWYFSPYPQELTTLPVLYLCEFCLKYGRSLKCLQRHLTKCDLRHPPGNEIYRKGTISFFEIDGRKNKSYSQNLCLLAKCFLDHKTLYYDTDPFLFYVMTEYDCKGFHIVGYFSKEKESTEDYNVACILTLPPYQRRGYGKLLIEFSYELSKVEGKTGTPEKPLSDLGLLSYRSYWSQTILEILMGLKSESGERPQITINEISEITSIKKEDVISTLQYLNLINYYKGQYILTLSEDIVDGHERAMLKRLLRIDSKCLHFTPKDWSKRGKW
T4 sequence (Q92794 507-778 A567V limits assumed): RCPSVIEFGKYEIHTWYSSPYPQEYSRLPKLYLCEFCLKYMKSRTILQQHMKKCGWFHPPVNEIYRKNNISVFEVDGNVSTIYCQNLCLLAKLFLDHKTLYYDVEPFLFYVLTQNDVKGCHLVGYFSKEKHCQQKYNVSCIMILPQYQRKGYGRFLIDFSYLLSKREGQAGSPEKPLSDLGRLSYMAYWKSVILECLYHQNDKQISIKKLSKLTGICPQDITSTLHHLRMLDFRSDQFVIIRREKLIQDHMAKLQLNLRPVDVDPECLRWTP
T1 sequence (O95251 with tags, fused parts or gaps): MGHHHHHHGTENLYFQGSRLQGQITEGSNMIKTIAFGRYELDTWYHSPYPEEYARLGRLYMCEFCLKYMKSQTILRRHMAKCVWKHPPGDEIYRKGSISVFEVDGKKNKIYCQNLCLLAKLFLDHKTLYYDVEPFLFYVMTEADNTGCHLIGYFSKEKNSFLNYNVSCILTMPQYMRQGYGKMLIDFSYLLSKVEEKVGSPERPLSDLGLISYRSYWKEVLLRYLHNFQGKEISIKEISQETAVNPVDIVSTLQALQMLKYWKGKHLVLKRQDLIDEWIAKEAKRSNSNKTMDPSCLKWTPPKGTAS

| Compound | IC50 [1] [µM] | IC50 [2] [µM] | IC50 [3] [nM] | IC50 ([4]; read-out: IC50 (MOF-KAT8), Revised acetyltransferase biochemical assay, 20 nM KAT8, 1 μM AcCoA, 100 nM histone H4, 90 min) [µM] | IC50 [5] [nM] | IC50 [6] [nM] | IC50 [7] [nM] | IC50 [8] [µM] | IC50 ([2]; Homo sapiens) [µM] | IC50 [4] [µM] | IC50 [9] [nM] | IC50 [10] [µM] | IC50 [11] [µM] | IC50 [12] [µM] |
| --- | --- | --- | --- | --- | --- | --- | --- | --- | --- | --- | --- | --- | --- | --- |
| COCc1ccccc1CCNC(=O)C1=Nc2ccc(I)cc2S(=O)(=O)N1 [Example 14, 7-Iodo-N-(2-(methoxymethyl)phenethyl)-2H-benzo[e][1,2,4]thiadiazine-3-carboxamide 1,1-dioxide] | 0.083 |  | 2360 |  | 10 | 58 |  | 0.156 | 1.06 | 37.8 | 1780 |  |  |  |
| O=C(NCC(c1ccccc1)c1ncco1)C1=Nc2ccc(-c3cn[nH]c3)cc2S(=O)(=O)N1 (stereo not shown) [Example 26, N-(2-(Oxazol-2-yl)-2-phenylethyl)-7-(1H-pyrazol-4-yl)-2H-benzo[e][1,2, 4]thiadiazine-3-carboxamide 1,1-dioxide] | 5.07 |  | 1660 |  | 41 | 120 | 28.7 | 5.94 | 1.08 | 39.9 | 1480 | 23.7 |  |  |
| CNC(=O)c1ccc2c(c1)S(=O)(=O)NC(C(=O)NCC(c1ccccc1)c1ncco1)=N2 (stereo not shown) [Example 32, N^7-Methyl-N^3-(2-(oxazol-2-yl)-2-phenylethyl)-2H-benzo[e][1,2,4]thiadiazine-3,7-dicarboxamide 1,1-dioxide] | 0.356 |  | 5040 |  | 30 | 155 | 49.8 | 5.33 | > 10 | > 125 | 4640 | 74.1 |  |  |
| COc1cc(C)cc(C(CNC(=O)C2=Nc3ccc(Cl)cc3S(=O)(=O)N2)c2ncco2)c1 (stereo not shown) [Example 159, 7-chloro-N-(2-(3-methoxy-5-methylphenyl)-2-(oxazol-2-yl)ethyl)-2H-benzo[e][1,2,4]thiadiazine-3-carboxamide 1,1-dioxide] | 0.295 |  |  |  | 371 | 4050 |  | 3.2 | 5.09 | 16.3 |  |  |  |  |
| O=C(NCC1(c2ccccn2)CCCCC1)C1=Nc2ccc(Cl)cc2S(=O)(=O)N1 [Example 197] | 7.53 |  |  |  | 290 | 780 |  | 23.6 | 3.04 |  |  |  |  |  |
| O=C(NCC(CO)C1CCCCC1)C1=Nc2ccc(Cl)cc2S(=O)(=O)N1 (stereo not shown) [Example 199] | 6.57 |  |  |  | 838 | 6170 |  | 15.6 | 10 |  |  |  |  |  |
| O=C(NCC(F)(F)c1ccccc1)C1=Nc2ccc(I)cc2S(=O)(=O)N1 [Example 238, N-(2,2-difluoro-2-phenylethyl)-7-iodo-2H-benzo[e][1,2,4]thiadiazine-3-carboxamide 1,1-dioxide] | 0.881 |  |  |  | 188 | 5870 |  | 1.81 |  | 25.6 |  | 41.4 |  | 13.7 |

Further lines, results first:

| IC50 [1] [µM] | IC50 [2] [µM] | IC50 [3] [nM] | IC50 ([4]; read-out: IC50 (MOF-KAT8), Revised acetyltransferase biochemical assay, 20 nM KAT8, 1 μM AcCoA, 100 nM histone H4, 90 min) [µM] | IC50 [5] [nM] | IC50 [6] [nM] | IC50 [7] [nM] | IC50 [8] [µM] | IC50 ([2]; Homo sapiens) [µM] | IC50 [4] [µM] | IC50 [9] [nM] | IC50 [10] [µM] | IC50 [11] [µM] | IC50 [12] [µM] | Compound |
| --- | --- | --- | --- | --- | --- | --- | --- | --- | --- | --- | --- | --- | --- | --- |
| 1.39 | 0.104 | 1650 | 46.7 | 21 | 459 | 120 | 1.06 |  |  |  |  |  |  | O=C(NCC(c1ccccc1)c1ncco1)C1=Nc2ccc(F)cc2S(=O)(=O)N1 (single isomer, unassigned) [Example 144] |
| 12 |  | 6890 |  | 64 | 610 | 51.2 | 5.91 | 3.82 | > 125 | 1930 | 78.2 |  |  | Cn1cc(-c2ccc3c(c2)S(=O)(=O)NC(C(=O)NCC(c2ccccc2)c2ncco2)=N3)cn1 (stereo not shown) [Example 25, 7-(1-Methyl-1H-pyrazol-4-yl)-N-(2-(oxazol-2-yl)-2-phenylethyl)-2H-benzo[e][1,2,4]thiadiazine-3-carboxamide 1,1-dioxide] |
| 6.41 |  | > 125000 |  | 99000 | > 125000 |  | > 125 | > 10 | > 125 |  |  |  |  | O=C(NCC(c1ccccc1)c1ncc[nH]1)C1=Nc2ccccc2S(=O)(=O)N1 (stereo not shown) [Example 113] |
| 8.37 |  |  |  | 351 | 1380 |  | 42.3 | 5.2 |  |  |  |  |  | O=C(NCC1(c2ccccn2)CCCC1)C1=Nc2ccc(Cl)cc2S(=O)(=O)N1 [Example 198] |
| > 125 |  |  |  | 1040 | > 125000 |  | > 125 | > 10 |  |  |  |  |  | O=C(NCCC1CCCCC1)C1=Nc2ccc(Cl)cc2S(=O)(=O)N1 [Example 202] |
| 59.5 |  |  |  | 122 | > 125000 |  | > 125 | > 10 | > 125 |  | > 125 | > 40 |  | O=C(NCCC1CCCCC1)C1=Nc2ccc(I)cc2S(=O)(=O)N1 [Example 204] |
